Test results as given in PubChem BioAssay AID330 (DTP/NCI, 2004).
“And” between values parts separate entries of the source, which are not always exact repeats. Identical values can stand only once. Inconclusive results and toxic doses are left out.

Test system: P388 leukemia ip, CD2F1 mice, survival T/C
Experiment: NCI In Vivo Anticancer Drug Screen. Data for tumor model P388 Leukemia (intraperitoneal) in CD2F1 (CDF1) mice
Conditions: endpoint: median survival time, higher = longer survival
How it was run: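 Mice carrying the transplanted tumor received test compound or vehicle. Survival was recorded in each group, and the value is the treated-group measurement divided by that of the vehicle-treated control group.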

[1] = dose: 50.0 mg/kg/injection, schedule: Q01DX005 (ip), vehicle: Klucel (hydroxypropylcellulose) (HPC)
[2] = dose: 100.0 mg/kg/injection, schedule: Q01DX005 (ip), vehicle: Klucel (hydroxypropylcellulose) (HPC)
[3] = dose: 200.0 mg/kg/injection, schedule: Q01DX005 (ip), vehicle: Klucel (hydroxypropylcellulose) (HPC)
[4] = dose: 240.0 mg/kg/injection, schedule: Q01DX005 (ip), vehicle: Klucel (hydroxypropylcellulose) (HPC)
[5] = dose: 12.5 mg/kg/injection, schedule: Q01DX005 (ip), vehicle: Klucel (hydroxypropylcellulose) (HPC)
[6] = dose: 25.0 mg/kg/injection, schedule: Q01DX005 (ip), vehicle: Klucel (hydroxypropylcellulose) (HPC)

CCCC(=O)OCC1OC(n2cnc3c(=S)nc(N)[nH]c32)C(OC(=O)CCC)C1OC(=O)CCC (configuration not stated)
T/C (dose: 1.25 mg/kg/injection, schedule: Q04DX003 (ip), vehicle: saline with Tween-80): 100 % of control
T/C (dose: 2.5 mg/kg/injection, schedule: Q04DX003 (ip), vehicle: saline with Tween-80): 104 % of control
T/C (dose: 5.0 mg/kg/injection, schedule: Q04DX003 (ip), vehicle: saline with Tween-80): 113 % of control
T/C (dose: 10.0 mg/kg/injection, schedule: Q04DX003 (ip), vehicle: saline with Tween-80): 155 % of control
T/C (dose: 20.0 mg/kg/injection, schedule: Q04DX003 (ip), vehicle: saline with Tween-80): 165 % of control
T/C (dose: 25.0 mg/kg/injection, schedule: Q01DX009 (ip), vehicle: saline with Tween-80): 122 % of control
T/C (dose: 25.0 mg/kg/injection, schedule: Q04DX003 (ip), vehicle: saline with Tween-80): 150 % of control
T/C (dose: 50.0 mg/kg/injection, schedule: Q01DX009 (ip), vehicle: saline with Tween-80): 90 % of control
T/C (dose: 50.0 mg/kg/injection, schedule: Q04DX003 (ip), vehicle: saline with Tween-80): 116 % of control
T/C (dose: 200.0 mg/kg/injection, schedule: Q04DX003 (ip), vehicle: saline with Tween-80): 118 % of control

Clc1cccc2nncn12
T/C (dose: 50.0 mg/kg/injection, schedule: Q01DX001 (ip), vehicle: saline): 98 % of control
T/C (dose: 100.0 mg/kg/injection, schedule: Q01DX001 (ip), vehicle: saline): 102 % of control
T/C (dose: 200.0 mg/kg/injection, schedule: Q01DX001 (ip), vehicle: saline): 100 % of control

COc1ccc2c(c1)C(O)NC(=O)O2 (configuration not stated)
T/C [1]: 98 % of control
T/C [2]: 103 % of control
T/C [3]: 119 % of control

O=[N+]([O-])c1cccc(C2=NON(c3ccccn3)C3C=CC=CN23)c1 (configuration not stated)
T/C (dose: 60.0 mg/kg/injection, schedule: Q01DX005 (ip), vehicle: saline with Tween-80): 94 % of control
T/C (dose: 120.0 mg/kg/injection, schedule: Q01DX005 (ip), vehicle: saline with Tween-80): 90 % of control
T/C (dose: 240.0 mg/kg/injection, schedule: Q01DX005 (ip), vehicle: saline with Tween-80): 92 % of control

CCOCc1ccc(C(=O)NCCCc2c(-c3ccccc3)nc(N)[nH]c2=O)cc1
T/C (dose: 3.75 mg/kg/injection, schedule: Q01DX005 (ip), vehicle: Klucel (hydroxypropylcellulose) (HPC)): 100 % of control and 103 % of control and 94 % of control
T/C (dose: 7.5 mg/kg/injection, schedule: Q01DX005 (ip), vehicle: Klucel (hydroxypropylcellulose) (HPC)): 93 % of control and 97 % of control
T/C (dose: 15.0 mg/kg/injection, schedule: Q01DX005 (ip), vehicle: Klucel (hydroxypropylcellulose) (HPC)): 89 % of control and 92 % of control and 97 % of control
T/C [4]: 86 % of control

Cc1cc(C)n(-c2cc(N3CCN(C)CC3)ncn2)n1
T/C (dose: 50.0 mg/kg/injection, schedule: Q01DX009 (ip), vehicle: saline): 98 % of control
T/C (dose: 100.0 mg/kg/injection, schedule: Q01DX009 (ip), vehicle: saline): 98 % of control
T/C (dose: 200.0 mg/kg/injection, schedule: Q01DX009 (ip), vehicle: saline): 98 % of control

COC(=O)c1nc(=S)[nH]c(C(=O)OC)c1C(=O)c1c(C)[nH]c2ccccc12
T/C (dose: 60.0 mg/kg/injection, schedule: Q01DX005 (ip), vehicle: Klucel (hydroxypropylcellulose) (HPC)): 98 % of control
T/C (dose: 120.0 mg/kg/injection, schedule: Q01DX005 (ip), vehicle: Klucel (hydroxypropylcellulose) (HPC)): 96 % of control
T/C [4]: 95 % of control

C(=C\c1cc2ccc(C3=NCCN3)cc2[nH]1)/c1ccc2cc(C3=NCCN3)[nH]c2c1
T/C [5]: 105 % of control
T/C [6]: 110 % of control
T/C [1]: 108 % of control and 110 % of control

Nc1ccc(S(=O)(=O)n2c(=O)oc3cc(Cl)ccc32)cc1
T/C [5]: 100 % of control
T/C [6]: 93 % of control
T/C [1]: 102 % of control and 91 % of control

O=c1[nH]nc(-c2ccc(Cl)cc2)c2cc(Cl)c(Cl)cc12
T/C (dose: 3.12 mg/kg/injection, schedule: Q04DX002 (ip), vehicle: distilled water + Tween-80): 90 % of control
T/C (dose: 6.25 mg/kg/injection, schedule: Q04DX002 (ip), vehicle: distilled water + Tween-80): 96 % of control
T/C (dose: 12.5 mg/kg/injection, schedule: Q04DX002 (ip), vehicle: distilled water + Tween-80): 93 % of control
T/C (dose: 25.0 mg/kg/injection, schedule: Q04DX002 (ip), vehicle: distilled water + Tween-80): 93 % of control
T/C (dose: 50.0 mg/kg/injection, schedule: Q04DX002 (ip), vehicle: distilled water + Tween-80): 90 % of control
T/C (dose: 100.0 mg/kg/injection, schedule: Q04DX002 (ip), vehicle: distilled water + Tween-80): 95 % of control
T/C (dose: 200.0 mg/kg/injection, schedule: Q04DX002 (ip), vehicle: distilled water + Tween-80): 102 % of control

Cc1ccc(/C=C2\SC(=S)N(C3CC3)C2=O)cc1
T/C [1]: 97 % of control
T/C [2]: 95 % of control
T/C [3]: 93 % of control

O=C1SC/C(=N\N=c2/scc(-c3ccccc3)n2-c2ccc(Br)cc2)N1Cc1ccccc1
T/C (dose: 100.0 mg/kg/injection, schedule: Q04DX002 (ip), vehicle: Klucel (hydroxypropylcellulose) (HPC)): 86 % of control
T/C (dose: 200.0 mg/kg/injection, schedule: Q04DX002 (ip), vehicle: Klucel (hydroxypropylcellulose) (HPC)): 91 % of control
